Experimental findings from ChEMBL document CHEMBL1201862, “PubChem BioAssay data set” (2004) are described below.

SMILES strings stand for the structures. Active and inactive are the calls of the source.

Experiment [1] can be described thus: microbe, parasite or virus in culture. It counts as functional. Particulars: Mycobacterium tuberculosis.
The target in experiment [2] is T1, Estrogen receptor (Homo sapiens, UniProt P03372).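 Also: potency for inhibiting coactivator peptide recruitment to the receptor.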
T1 sequence (P03372 whole entry): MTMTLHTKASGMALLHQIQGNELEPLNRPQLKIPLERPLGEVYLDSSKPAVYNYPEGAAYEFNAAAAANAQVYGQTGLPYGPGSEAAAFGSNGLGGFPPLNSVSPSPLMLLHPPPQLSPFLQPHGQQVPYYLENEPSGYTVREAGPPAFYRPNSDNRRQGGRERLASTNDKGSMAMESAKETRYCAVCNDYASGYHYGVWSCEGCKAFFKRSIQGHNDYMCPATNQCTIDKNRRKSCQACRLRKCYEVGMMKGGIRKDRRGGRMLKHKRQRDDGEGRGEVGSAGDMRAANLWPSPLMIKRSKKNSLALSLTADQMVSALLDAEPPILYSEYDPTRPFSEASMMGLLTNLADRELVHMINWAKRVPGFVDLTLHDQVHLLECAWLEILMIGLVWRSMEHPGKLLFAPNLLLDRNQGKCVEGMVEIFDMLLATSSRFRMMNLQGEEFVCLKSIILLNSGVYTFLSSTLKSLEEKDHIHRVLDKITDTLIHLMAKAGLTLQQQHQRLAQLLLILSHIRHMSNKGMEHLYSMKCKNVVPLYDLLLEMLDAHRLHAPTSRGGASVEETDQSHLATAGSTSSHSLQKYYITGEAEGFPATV

Experiment [3] addresses Genome polyprotein (dengue virus type 2, UniProt P29990). The experiment can be described thus: Dengue-2 NS5 methyltransferase inhibitors, primary screen, biochemical, confirmation dose response (AID 588689). It counts as functional.
Experiment [4] deals with Cytochrome P450 2C9 (Homo sapiens, UniProt P11712).
Chain of Cytochrome P450 2C9 (P11712 whole entry): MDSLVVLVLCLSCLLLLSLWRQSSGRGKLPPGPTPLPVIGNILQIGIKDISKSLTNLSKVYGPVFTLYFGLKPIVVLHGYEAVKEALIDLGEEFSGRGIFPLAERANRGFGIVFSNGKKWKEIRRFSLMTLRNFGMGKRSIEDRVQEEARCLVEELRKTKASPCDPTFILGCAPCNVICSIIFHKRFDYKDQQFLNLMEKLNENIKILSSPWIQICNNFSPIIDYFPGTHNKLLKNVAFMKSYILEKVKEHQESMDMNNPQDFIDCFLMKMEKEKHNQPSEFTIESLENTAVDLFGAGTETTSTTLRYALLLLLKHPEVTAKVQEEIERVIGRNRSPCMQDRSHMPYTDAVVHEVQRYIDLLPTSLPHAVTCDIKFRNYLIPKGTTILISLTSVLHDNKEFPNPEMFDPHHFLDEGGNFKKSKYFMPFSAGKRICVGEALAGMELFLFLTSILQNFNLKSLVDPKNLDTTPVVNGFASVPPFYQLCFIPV
The target in experiment [5] is T2, Calpain-2 catalytic subunit (Sus scrofa, UniProt P43367).
T2 sequence (P43367 whole entry): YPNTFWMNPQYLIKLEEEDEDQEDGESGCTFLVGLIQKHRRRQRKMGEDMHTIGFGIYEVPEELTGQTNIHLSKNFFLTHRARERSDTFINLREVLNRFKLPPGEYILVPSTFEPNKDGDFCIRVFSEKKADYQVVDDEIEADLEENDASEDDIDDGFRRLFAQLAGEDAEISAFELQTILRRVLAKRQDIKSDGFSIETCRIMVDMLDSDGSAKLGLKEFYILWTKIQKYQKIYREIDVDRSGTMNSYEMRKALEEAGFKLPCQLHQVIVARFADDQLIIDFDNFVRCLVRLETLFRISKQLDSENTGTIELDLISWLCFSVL
The experiment can be described thus: pig calpain II inhibitor potency, dose response, biochemical, fluorogenic peptide substrate (AID 1420). It counts as functional.

For experiment [6], the system named is HEK293. Put plainly: inhibitors of LMP1-driven NF-kB reporter, dose response, cell-based, HEK293, luciferase, cherry-pick (AID 588343). It counts as functional. Particulars: Homo sapiens.
Experiment [7] deals with T3, Protein RecA (Mycobacterium tuberculosis, UniProt P9WHJ3).
T3 sequence (P9WHJ3 whole entry): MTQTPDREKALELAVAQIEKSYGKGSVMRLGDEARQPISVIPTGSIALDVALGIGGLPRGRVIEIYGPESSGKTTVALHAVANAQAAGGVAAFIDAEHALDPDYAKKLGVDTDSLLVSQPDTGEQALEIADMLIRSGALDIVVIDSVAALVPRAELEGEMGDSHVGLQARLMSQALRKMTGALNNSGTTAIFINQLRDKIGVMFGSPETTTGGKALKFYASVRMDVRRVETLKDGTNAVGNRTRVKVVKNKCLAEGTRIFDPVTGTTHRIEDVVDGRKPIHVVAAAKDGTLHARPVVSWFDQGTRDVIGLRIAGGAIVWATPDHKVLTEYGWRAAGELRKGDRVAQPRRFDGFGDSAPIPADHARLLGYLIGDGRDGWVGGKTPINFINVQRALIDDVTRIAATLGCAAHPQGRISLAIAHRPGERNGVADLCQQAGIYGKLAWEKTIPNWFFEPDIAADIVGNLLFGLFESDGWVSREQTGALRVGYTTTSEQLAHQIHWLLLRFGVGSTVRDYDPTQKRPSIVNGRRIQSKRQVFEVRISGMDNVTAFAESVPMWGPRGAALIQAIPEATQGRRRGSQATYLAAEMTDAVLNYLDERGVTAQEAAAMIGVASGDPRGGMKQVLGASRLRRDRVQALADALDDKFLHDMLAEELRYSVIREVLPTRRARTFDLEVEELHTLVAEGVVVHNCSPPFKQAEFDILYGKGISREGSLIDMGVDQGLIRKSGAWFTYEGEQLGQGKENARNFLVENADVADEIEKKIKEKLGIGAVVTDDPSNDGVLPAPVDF
Put plainly: Fluorescence Cell-Free Homogeneous Dose Retest to Identify Inhibitors of RecA-Intein Splicing Activity. [Related pubchem assays (depositor defined):AID2097, AID2223, AID489010, AID492950]. It counts as functional.

Experiment [8] has as its target T4, Replicative DNA helicase DnaB (Mycobacterium tuberculosis, UniProt P9WMR3).
T4 sequence (P9WMR3 whole entry): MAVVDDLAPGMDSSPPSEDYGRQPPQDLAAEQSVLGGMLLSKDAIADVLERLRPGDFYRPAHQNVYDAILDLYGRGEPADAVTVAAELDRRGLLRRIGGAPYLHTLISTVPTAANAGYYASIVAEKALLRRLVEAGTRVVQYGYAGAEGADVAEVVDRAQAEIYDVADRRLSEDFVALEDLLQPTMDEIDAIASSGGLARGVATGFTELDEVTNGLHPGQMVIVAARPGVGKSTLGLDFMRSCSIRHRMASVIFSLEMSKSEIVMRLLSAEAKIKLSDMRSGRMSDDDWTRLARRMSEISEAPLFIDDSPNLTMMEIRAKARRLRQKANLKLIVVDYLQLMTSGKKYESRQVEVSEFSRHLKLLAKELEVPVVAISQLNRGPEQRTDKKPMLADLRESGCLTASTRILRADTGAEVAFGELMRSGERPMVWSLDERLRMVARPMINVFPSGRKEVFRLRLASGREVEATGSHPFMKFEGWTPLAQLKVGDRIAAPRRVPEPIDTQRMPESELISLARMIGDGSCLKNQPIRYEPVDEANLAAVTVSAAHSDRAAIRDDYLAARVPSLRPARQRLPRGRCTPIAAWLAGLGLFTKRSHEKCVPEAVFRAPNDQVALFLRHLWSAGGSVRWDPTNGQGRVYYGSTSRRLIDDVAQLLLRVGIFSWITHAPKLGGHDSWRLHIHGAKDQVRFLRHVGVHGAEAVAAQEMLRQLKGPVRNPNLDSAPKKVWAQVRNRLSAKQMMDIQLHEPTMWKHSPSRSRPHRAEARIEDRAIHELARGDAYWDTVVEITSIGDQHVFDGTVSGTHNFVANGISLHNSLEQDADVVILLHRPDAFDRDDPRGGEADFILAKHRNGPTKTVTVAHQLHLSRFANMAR
The experiment can be described thus: DnaB intein splicing inhibitors, dose response, biochemical, cell-free fluorescence (AID 449749). It counts as functional.

Experiment [9] concerns the target T5, Ubiquitin-conjugating enzyme E2 N (Homo sapiens, UniProt P61088).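 Also: Dose-response confirmation in a TR-FRET assay detecting UBC13-driven polyubiquitin chain formation, inhibition measured.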
T5 sequence (P61088 whole entry): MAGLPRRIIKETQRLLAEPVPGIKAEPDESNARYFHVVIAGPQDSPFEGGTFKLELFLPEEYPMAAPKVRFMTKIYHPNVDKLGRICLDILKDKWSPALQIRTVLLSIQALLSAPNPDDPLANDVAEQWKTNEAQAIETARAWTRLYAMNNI
The experiment is classed as functional.

In experiment [10] the test system is Streptococcus. The experiment can be described thus: Group A Streptococcus viability loss, dose response, counter-screen for streptokinase expression inhibitor project, luminescence, BacTiterGlo (AID 1915).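 Also: potency for reduction of bacterial viability or growth.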 It counts as functional, organism-based.
Experiment [11] concerns INS1. Put plainly: beta cell apoptosis inhibitors, cytokine rescue, dose response, luminescence, retest (AID 449756).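 Also: cell death triggered by IL-1 beta plus TNF-alpha plus IFN-gamma mixture; protective hits raise ATP signal compared with cytokine alone wells.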 It counts as functional, cell-based. Particulars: Rattus norvegicus.
The test system of experiment [12] is Streptococcus sp. 'group A'. Put plainly: growth inhibition of control SK(-) GAS strain, dose response, counter-screen for streptokinase expression inhibitor project, luminescence, kanamycin, BacTiterGlo, confirmation (AID 1900). The experiment is classed as functional, organism-based.
The nature of experiment [13]: inhibitors of intracellular T. cruzi replication, confirmation, NIH3T3 host cells, beta-gal luminescence (AID 2044).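 Also: intracellular parasites grown in NIH/3T3 mouse fibroblasts as host cells; luminescent beta-galactosidase reporter signal from transgenic T. cruzi replicating inside host cells; inhibitors lower the luminescence signal.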 The experiment is classed as functional, cell-based.
Experiment [14] can be described thus: cytotoxicity toward NIH3T3 fibroblasts, dose response, counter-screen, cell-based, ATP luminescence, mouse fibroblasts (AID 2010).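 Also: cells exposed to compound for about 90 hours before reading.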 It counts as functional.
In experiment [15] the target is Prothrombin (Homo sapiens, UniProt P00734). The experiment can be described thus: Thrombin 1536 HTS Dose Response Confirmation. [Related pubchem assays: 1046 (Thrombin 1536 HTS; hits were confirmed in this assay)]. The experiment is classed as functional.
A short description of experiment [16]: cells. The experiment is classed as functional, cell-based.
A short description of experiment [17]: cells. It counts as functional, cell-based. The source holds these as a separate data set.
Experiment [18] concerns BJ. The experiment can be described thus: cytotoxicity toward BJ-TERT-LT-ST fibroblasts, dose response, cell-based, RAS-independent, luminescence (AID 1935).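 Also: BJ fibroblasts immortalized with TERT plus LT and ST oncogenes.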 It counts as functional. Particulars: Homo sapiens.
For experiment [19], the system named is BJ. Put plainly: cells. To be noted: Homo sapiens. It counts as functional, cell-based.
For experiment [20], the system named is BJ. The experiment can be described thus: cytotoxicity toward BJ-TERT fibroblasts, dose response, cell-based, RAS-independent, luminescence (AID 1933). The experiment is classed as functional. Particulars: Homo sapiens.
The nature of experiment [21]: cytotoxicity toward DRD oncogenic fibroblasts, dose response, cell-based, non-viral oncogenic, luminescence (AID 1934). Particulars: Homo sapiens. It counts as functional.

Chain of Genome polyprotein (P29990 2492-3391 limits assumed): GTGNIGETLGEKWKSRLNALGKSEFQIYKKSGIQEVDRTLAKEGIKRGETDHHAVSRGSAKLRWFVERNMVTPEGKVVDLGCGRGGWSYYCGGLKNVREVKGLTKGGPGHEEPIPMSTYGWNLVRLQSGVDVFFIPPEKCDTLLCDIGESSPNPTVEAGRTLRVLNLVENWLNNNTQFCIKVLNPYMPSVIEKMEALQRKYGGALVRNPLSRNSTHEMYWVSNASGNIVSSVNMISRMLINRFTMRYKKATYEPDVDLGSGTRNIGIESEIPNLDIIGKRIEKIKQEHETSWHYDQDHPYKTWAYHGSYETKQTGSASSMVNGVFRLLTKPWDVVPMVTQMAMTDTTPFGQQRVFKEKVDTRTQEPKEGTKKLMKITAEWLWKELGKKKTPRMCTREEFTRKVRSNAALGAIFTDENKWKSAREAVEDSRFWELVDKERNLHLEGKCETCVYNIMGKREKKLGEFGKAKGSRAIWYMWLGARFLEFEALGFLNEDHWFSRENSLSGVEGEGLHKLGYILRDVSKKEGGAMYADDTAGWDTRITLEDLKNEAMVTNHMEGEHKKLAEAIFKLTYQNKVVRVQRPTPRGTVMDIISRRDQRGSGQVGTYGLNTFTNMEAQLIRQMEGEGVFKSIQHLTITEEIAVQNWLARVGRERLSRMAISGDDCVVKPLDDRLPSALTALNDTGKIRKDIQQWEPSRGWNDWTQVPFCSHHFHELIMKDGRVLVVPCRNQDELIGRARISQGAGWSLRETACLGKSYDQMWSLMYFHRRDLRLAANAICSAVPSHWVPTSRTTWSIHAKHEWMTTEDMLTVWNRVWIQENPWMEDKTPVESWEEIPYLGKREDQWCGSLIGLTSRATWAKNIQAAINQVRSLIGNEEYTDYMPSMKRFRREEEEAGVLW

As to `Cc1cccc(NS(=O)(=O)c2ccc(C(=O)N3CCN(c4ccccc4O)CC3)cc2)c1C`, the CC50 in [1] was 36.6 µM (active).

In the case of `COc1cc(NC(=O)c2cccs2)c(C(=O)OCC(=O)NCc2ccco2)cc1OC`, in experiment [1], the CC50 was > 40 µM (active). In addition, the IC50 in [2] was 14.8 µM (active).

Take `O=C1/C(=C2\C(=O)N(Cc3ccc(F)cc3)c3ccccc32)SC(=S)N1CCS(=O)(=O)O`: in experiment [3], the IC50 is 32.5 µM (active).

For the molecule `Cc1ccc(C(=O)O)cc1N1C(=O)c2cccc3cc(Br)cc(c23)C1=O`, in experiment [4], the AC50 is 15.8 µM (inconclusive). In addition, the IC50 in [5] was 7.36 µM (not active).

Regarding `C=CCn1c(=O)/c(=C/c2ccc(Cl)cc2)s/c1=C(\C#N)c1nnc2n1CCCCC2`, in [6], the AC50 is 23.9 µM (active).

Take `Cc1[nH]n(-c2ccccc2)c(=O)c1C(c1ccccc1[N+](=O)[O-])C(C#N)C#N` (configuration not stated): the EC50 in [7] was 7.28 µM (active). Moreover, the IC50 in experiment [3] was 86.4 µM (active). The AC50 in experiment [8] was 3.3 µM (active).

With `Cc1ccc(-c2csc3nc4c5ccccc5c(NCCCN5CCOCC5)nn4c(=O)c23)cc1`, the CC50 in experiment [1] is 13.6 µM (active).

On to `CC[C@H](C)[C@@H](CN[C@H](C)CNC)NCCC(c1ccccc1)c1ccccc1`, for which, in [9], the IC50 is > 20 µM (inactive).

`CCOc1ccc(N2C(=O)C3C(c4ccccc4)=NN(c4ccccc4)C3C2=O)cc1` (configuration not stated): the IC50 in experiment [9] is > 20 µM (inactive).

`N=C(NNC(=O)c1sccc1OCc1ccc(Cl)cc1Cl)c1ccccn1`: the EC50 in [10] is > 150 µM (not active); in [12], 3.89 µM (active). In experiment [1], the CC50 is 6.31 µM (active). Besides, in experiment [11], the AC50 was 5.2 µM (active).

With `CCC(C(=O)OCC(=O)Nc1ccc(SC(F)F)cc1)c1ccccc1` (configuration not stated), the EC50 was 1.68 µM (active) in experiment [13] and > 60 µM (not active) in experiment [14]. Moreover, the IC50 is recorded as 7.17 µM (not active) in experiment [5] and > 50 µM (not active) in experiment [15].

As for `NC(=O)CCn1c(C(=O)c2cc(Cl)c(N)c(Cl)c2)c2ccccc2[n+]1[O-]`, in experiment [9], the IC50 was > 20 µM (inactive).

With `CNC[C@H](Cc1cccc2ccccc12)NC[C@H](CCSC)NCC1CCC(C(C)(C)C)CC1` (some centres not stated), the CC50 in experiment [1] is 25.4 µM (active).

In the case of `N#Cc1ccc(-c2csc(NNC(=O)c3ccc(Br)cc3)n2)cc1`, the concentration giving a half-maximal response (EC50) in experiment [16] and in experiment [17] was > 350 µM (not active) each time. Also, the AC50 in [6] is 8.39 µM (active); in [11] it was 7.72 µM (active).

Consider `CCCc1cnc(NCCNCC(O)COc2ccc(Cl)c(Cl)c2)nc1` (configuration not stated), for which the CC50 in experiment [1] is 22.1 µM (active).

As for `CCOC(=O)c1[nH]c(C)c(C(=O)c2ccc(C)cc2)c1C`, the EC50 was 27.4 µM (inconclusive) in experiment [18], 23.5 µM (active) in experiment [19], 3.19 µM (inconclusive) in experiment [20] and 3.16 µM (active) in [21].
